The test deals with T1, Tyrosine-protein phosphatase non-receptor type 1 (Homo sapiens, UniProt P18031).
T1 sequence (P18031 whole entry): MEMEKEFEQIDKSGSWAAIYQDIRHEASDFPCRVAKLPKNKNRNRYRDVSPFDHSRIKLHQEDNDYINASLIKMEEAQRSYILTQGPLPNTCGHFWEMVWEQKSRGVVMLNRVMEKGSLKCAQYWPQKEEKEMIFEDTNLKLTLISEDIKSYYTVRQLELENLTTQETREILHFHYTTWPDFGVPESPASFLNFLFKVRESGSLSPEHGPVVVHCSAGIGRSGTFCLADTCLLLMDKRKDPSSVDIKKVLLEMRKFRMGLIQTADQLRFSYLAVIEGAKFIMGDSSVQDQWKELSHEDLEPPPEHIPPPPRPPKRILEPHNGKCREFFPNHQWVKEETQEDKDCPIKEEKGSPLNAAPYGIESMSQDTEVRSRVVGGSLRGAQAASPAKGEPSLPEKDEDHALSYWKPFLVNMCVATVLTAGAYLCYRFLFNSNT
The test can be described thus: Inhibition of GST-tagged PTP1B (1 to 321 residues) (unknown origin) using p-NPP as substrate preincubated for 10 mins followed by substrate addition measured after 30 mins.

The results in this text go back to ChEMBL document CHEMBL4014262, “Phloroglucinol Derivatives with Protein Tyrosine Phosphatase 1B Inhibitory Activities from Eugenia jambolana Seeds” (J Nat Prod, 2017).

Broadly, the IC50 is the concentration at which inhibition is half-maximal. A high value points to weaker potency in that assay.

Each structure is given as a SMILES string.

Compound `CC/C=C\C/C=C\C/C=C\CCCCCCCC1(O)CC(=O)c2c(O)c(C)c(O)c(C)c2O1` (stereo unspecified) registered an IC50 of 1.6 µM. Compound `CCCCC/C=C\C/C=C\CCCCCCCC1(O)CC(=O)c2c(O)c(C)c(O)c(C)c2O1` (stereo unspecified) registered a half-maximal inhibitory concentration (IC50) of 2.7 µM. As for `CCCC/C=C\CCCCCCCCCC1(O)CC(=O)c2c(O)c(C)c(O)c(C)c2O1` (stereo unspecified), half-maximal inhibition (IC50) required 1.8 µM.

Compound `CC/C=C\C/C=C\C/C=C\CCCCCCCC1(O)CC(=O)c2c(O)cc(O)cc2O1` (stereo unspecified) showed a half-maximal inhibitory concentration (IC50) of 0.45 µM.

`CCCCC/C=C\C/C=C\CCCCCCCC1(O)CC(=O)c2c(O)cc(O)cc2O1` (stereo unspecified): the IC50 amounted to 0.42 µM. For the compound `CCCCCCCCCCCCCCCC1(O)CC(=O)c2c(O)cc(O)cc2O1` (stereo unspecified), the midpoint of inhibition, the IC50, lay at 2 µM.
